# Source: paper PMC9668969 (Nature Communications, 2022)
# Several values for one entry are separate records, joined by “and”; a condition that tells them apart may be missing. Equal entries are not always repeated.
# Key:
# WT ELIC = test: Asymmetric liposome stopped-flow Tl+ flux assay (no exchange vs exchange, 25 mol% outer leaflet POPG); type: biochemical, Erwinia chrysanthemi; parameters: key to Tl+ flux quenching rate, Avg. / Tl+ flux quenching rate: Tl+ influx rate kt at 2 ms from stretched-exponential fit (Eq. 2b); settings: for Tl+ flux quenching rate, Avg. / Tl+ flux quenching rate: Exchange: WT in 3:1 PC:PE, 25% POPG in outer leaflet by beta-CD; for Tl+ flux quenching rate: single experiments
# Method: The fluorescence sequential-mixing stopped-flow liposomal flux measurements were carried using an SX20 stopped-flow spectrofluorometer (Applied Photophysics) and Pro-Data SX software[13],[30]. 7.5 mg of the respective lipid mixture (POPC, 1:1 POPC: POPE, 1:1 POPC:POPG, 3:1 POPC:POPE, 3:1 POPC:POPG, 2:1:1 POPC:POPE:POPG) was dried in a glass vial to a thin film under a constant stream of N2. The lipids were then further dried under vacuum in a desiccator overnight. The following day the lipids were hydrated in 500 µl of reconstitution buffer (100 mM NaNO3, 10 mM HEPES, pH 7) (Buffer R), 250 µl of 75 mM 8-Aminonaphthalene-1,3,6-Trisulfonic Acid (ANTS, ThermoFisher Scientific) in buffer R, and doped with ~18 mg of CHAPS (Anatrace). The mixture was vortexed and then sonicated with heat until completely solubilized. Following the sonication, the solution was brought to RT then 3.5 µl of 6.7 mg/ml ELIC in Buffer A with 0.02% DDM was added (3 µg per mg of lipid). This combined solution was incubated at RT for 30 min, followed by the addition of 1 ml of 1:1 v/v SM-2 BioBeads in Buffer R and an additional 250 µl of 75 mM ANTS in Buffer R. This mixture was incubated at RT for 2.5 hr with gentle mixing. The liposome suspension was then extruded with an Avanti mini-extruder and 0.1 µm membrane (30×). The extruded liposomes were stored at 13 °C overnight with gentle rotation. The next day, the liposomes were diluted to 2.5 mL using assay buffer (140 mM NaNO3, 10 mM HEPES, pH 7) (Stopped-flow Buffer A), loaded into a PD-10 desalting column (Cytiva), eluted with 3 mL of Stopped-flow Buffer A and subsequently diluted 5-fold with Stopped-flow Buffer A.
# Using propylamine as the agonist, the assay and analysis was carried out as previously described[13],[30]. ELIC-containing liposomes were first mixed 1:1 with Buffer A containing 2× the concentration of propylamine. After a variable delay of 10 ms to 25 s, the sample was then mixed 1:1 with a quenching buffer (90 mM NaNO3, 50 mM TlNO3, 10 mM HEPES, pH 7), and ANTS fluorescence (ex. 360 nm, fluorescence above 420 nm) was recorded for 1 s. For each delay time, 5 repeat measurements were obtained. The data were collected using Applied Photophysics Pro-Data SX software. The fluorescence quenching traces were fit to a stretched exponential (Eq. 2a) and the rate of Tl^+ influx was determined at 2 ms (Eq. 2b).2a Ft=F∞+F0−F∞⋅e^−t/τ^β 2b kt=β/τ⋅2ms/τ^(β−1) where Ft, F∞, F0 are the fluorescence at time t, final fluorescence and initial fluorescence. τ is the time constant, β the stretched exponential factor, and kt the calculated rate of Tl^+ influx at 2 ms. The time course of desensitization was also fit to a double exponential and a weighted time constant was calculated as was done for the patch-clamp data using Origin 2019b. All replicates were taken from independent samples.
# Acceptor liposomes were prepared as described in the Stopped-flow fluorescence recordings section until completion of the extrusion step. The preparation was scaled up 2x to produce samples for the no-exchange and exchange conditions. After extrusion and storage of the liposomes overnight at 13 °C, the double liposome preparation was split into two equal volume aliquots of ~1.5 ml. Using the excel spreadsheet provided by Markones et al.[44], donor POPG and methyl-β-cyclodextrin (MβCD, Sigma) concentrations and volumes were calculated to produce an outer leaflet POPG content of 25 mol% in the liposomes. The calculations assumed a ~6.66 mM lipid concentration and 1.5 mL volume of the acceptor liposome solution[44]. A MβCD-POPG (50% saturation of MβCD by POPG) solution was formed by combining 224 µL 7.5 mM POPG in Stopped-flow Buffer A, 650 µl 300 mM MβCD in Stopped-flow Buffer A, and 126 µL Stopped-flow Buffer A, which was then mixed at 50 °C and 1000 RPM for 20 min using an Eppendorf thermomixer. […]
# ELIC R117A = test: Asymmetric liposome stopped-flow Tl+ flux assay, mutant; type: biochemical, Erwinia chrysanthemi; settings: 25 mol% outer leaflet POPG, 10 mM propylamine
# Method: We next tested the effect of mutations that directly interact with the phospholipid in the ELIC5 CA structure (R117, T259), or are near this site and previously shown to interact with cardiolipin (S202, R318A, T259A and W206F) (Fig. 6a)[14]. The mutations were tested as for WT by examining the effect of 25 mol% outer leaflet POPG in paired (no exchange versus exchange) samples (Supplementary Fig. 15). […] Despite the mutations having various effects on ELIC agonist responses, comparison of no exchange and exchange samples enabled assessment of the effect of POPG.
# The fluorescence sequential-mixing stopped-flow liposomal flux measurements were carried using an SX20 stopped-flow spectrofluorometer (Applied Photophysics) and Pro-Data SX software[13],[30]. […]
# Using propylamine as the agonist, the assay and analysis was carried out as previously described[13],[30]. […] After a variable delay of 10 ms to 25 s, the sample was then mixed 1:1 with a quenching buffer (90 mM NaNO3, 50 mM TlNO3, 10 mM HEPES, pH 7), and ANTS fluorescence (ex. 360 nm, fluorescence above 420 nm) was recorded for 1 s. […] The time course of desensitization was also fit to a double exponential and a weighted time constant was calculated as was done for the patch-clamp data using Origin 2019b. […]
# Acceptor liposomes were prepared as described in the Stopped-flow fluorescence recordings section until completion of the extrusion step. […]
# [1] = 25 mol% in outer leaflet, 10 mM propylamine
# [2] = 10 mM propylamine, delay 0.01 s
# [3] = 10 mM propylamine, delay 0.05 s
# [4] = 10 mM propylamine, delay 0.25 s
structure (smiles),measurement,setting,value
"CCCCCCCC/C=C\CCCCCCCC(=O)OC(COC(=O)CCCCCCCCCCCCCCC)COP(=O)(O)OCC(O)CO (stereo not shown) [POPG, 1-palmitoyl-2-oleoyl-phosphatidylglycerol]",time constant of desensitization,WT ELIC; 25% POPG introduced to the outer leaflet,~ 6 s
same,effect on peak agonist response,WT ELIC; [1],increased the peak agonist response approximately two-fold
same,effect on rate of desensitization,WT ELIC; [1],reduced the rate of desensitization
same,"Tl+ flux quenching rate, Avg.",WT ELIC; [2],18.3739
same,"Tl+ flux quenching rate, Avg.","WT ELIC; 10 mM propylamine, delay 0.025 s",13.1397
same,"Tl+ flux quenching rate, Avg.",WT ELIC; [3],28.9905
same,"Tl+ flux quenching rate, Avg.","WT ELIC; 10 mM propylamine, delay 0.1 s",40.2879
same,"Tl+ flux quenching rate, Avg.",WT ELIC; [4],49.694
same,"Tl+ flux quenching rate, Avg.","WT ELIC; 10 mM propylamine, delay 0.5 s",74.7874
same,"Tl+ flux quenching rate, Avg.","WT ELIC; 10 mM propylamine, delay 1 s",70.2446
same,"Tl+ flux quenching rate, Avg.","WT ELIC; 10 mM propylamine, delay 2.5 s",59.7249
same,"Tl+ flux quenching rate, Avg.","WT ELIC; 10 mM propylamine, delay 5 s",40.3668
same,"Tl+ flux quenching rate, Avg.","WT ELIC; 10 mM propylamine, delay 10 s",38.6421
same,"Tl+ flux quenching rate, Avg.","WT ELIC; 10 mM propylamine, delay 25 s",9.131
same,Tl+ flux quenching rate,WT ELIC; [2],25.3857 and 14.5673 and 13.3121 and 20.2302
same,Tl+ flux quenching rate,WT ELIC; [3],31.4624 and 22.583 and 30.1073 and 31.8092
same,Tl+ flux quenching rate,WT ELIC; [4],55.8845 and 34.2232 and 67.362 and 41.3064
same,Tl+ flux quenching rate,"WT ELIC; 10 mM propylamine, delay 0.5 s",114.141 and 61.2513 and 65.8238 and 57.9331
same,POPG modulation (peak response and desensitization),ELIC R117A,both effects of POPG (increased peak response and decreased desensitization) are abolished
